US12521440B2, “Degradation of bruton's tyrosine kinase (BTK) by conjugation of BTK inhibitors with E3 ligase ligand and methods of use” (BeOne Medicines I GmbH, priority 2021, dated 2026)
pIC50: −log10 of the molar value.

Assays:
[1] = target: T1, BTK (Homo sapiens, UniProt Q06187); test: BTK degradation in TMD-8 cells (HTRF assay); assay type: cell-based; details: 6 h treatment, HTRF BTK degradation IC50 (DC50)
T1 construct: endogenous in cells; host or cells: TMD-8 cells
Procedure, shortened: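 BTK levels measured by HTRF (665/620 nm) in lysates of TMD-8 cells after 6 h compound treatment, with antibody incubation overnight at room temperature. Dosing covered 8 points, 6-fold dilutions from 1 mM 500× stocks, 0.2% DMSO final. Four-parameter curve fitting gave DC50.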

[2] = tested on: HEK-293 cells; test: HEK-293 cytotoxicity detection (CellTiter-Glo); assay type: cell-based; details: Homo sapiens, 72 h incubation, read-out: HEK293
Procedure, shortened: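 Cytotoxicity IC50 derived by four-parameter curve fitting of percent inhibition of CellTiter-Glo luminescence. Compounds tested at 8 doses in 4-fold steps, 0.2% DMSO, on HEK-293 cells for 72 h.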

T1 sequence (Q06187 whole entry): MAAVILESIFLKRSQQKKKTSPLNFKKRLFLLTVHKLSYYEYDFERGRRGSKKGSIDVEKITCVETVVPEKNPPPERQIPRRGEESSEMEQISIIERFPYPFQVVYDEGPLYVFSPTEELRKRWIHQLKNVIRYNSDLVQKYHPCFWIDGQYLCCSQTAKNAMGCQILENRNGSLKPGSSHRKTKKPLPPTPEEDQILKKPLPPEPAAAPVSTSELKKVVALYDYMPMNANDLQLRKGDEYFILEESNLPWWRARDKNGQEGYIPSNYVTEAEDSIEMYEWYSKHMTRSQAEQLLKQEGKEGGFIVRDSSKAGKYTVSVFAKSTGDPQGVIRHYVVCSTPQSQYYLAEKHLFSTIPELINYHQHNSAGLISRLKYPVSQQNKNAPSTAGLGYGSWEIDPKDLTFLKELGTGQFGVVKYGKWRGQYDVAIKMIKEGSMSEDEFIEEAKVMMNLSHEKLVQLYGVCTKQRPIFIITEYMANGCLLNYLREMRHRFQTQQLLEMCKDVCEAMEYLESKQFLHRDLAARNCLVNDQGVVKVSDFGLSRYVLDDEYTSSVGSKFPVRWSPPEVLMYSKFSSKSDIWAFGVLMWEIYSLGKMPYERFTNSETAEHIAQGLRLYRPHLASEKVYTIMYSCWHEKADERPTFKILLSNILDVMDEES

Row | Compound | DC50 [1] [nM] | pIC50 [2]
1 | Cc1cc(-c2cc(Nc3ccc(N4CCC5(CCN(CC6CCN(c7ccc(N8CCC(=O)NC8=O)cc7)CC6)C5)CC4)cn3)ncn2)ccc1[C@@H](C)NC(=O)c1nc(C(C)(C)C)no1 [Example 31, (R)-3-(tert-butyl)-N-(1-(4-(6-((5-(2-((1-(4-(2,4-dioxotetrahydropyrimidin-1(2H)-yl)phenyl)piperidin-4-yl)methyl)-2,8-diazaspiro[4.5]decan-8-yl)pyridin-2-yl)amino)pyrimidin-4-yl)-2-methylphenyl)ethyl)-1,2,4-oxadiazole-5-carboxamide] | 1.99 | 5.73
2 | COc1nc(Nc2cc(-c3ccc([C@@H](C)NC(=O)c4nc(C(C)(C)C)no4)c(C)c3)ncn2)ccc1N1CCN(CC2CCN(c3ccc(N4CCC(=O)NC4=O)cc3)CC2)CC1 [Example 63] | 0.979 | 6.21
3 | Cc1cc(-c2cc(Nc3cc(F)c(N4CCN(CC5CCN(c6ccc(N7CCC(=O)NC7=O)cc6)CC5)CC4)cn3)ncn2)ccc1[C@@H](C)NC(=O)c1nc(C(C)(C)C)no1 [Example 65] | 3.7 | < 5.00
4 | Cc1cc(-c2cc(Nc3ncc(N4CCN(CC5CCN(c6ccc(N7CCC(=O)NC7=O)cc6)CC5)CC4)cn3)ncn2)ccc1[C@@H](C)NC(=O)c1nc(C(C)(C)C)no1 [Example 14, (R)-3-(tert-butyl)-N-(1-(4-(6-((5-(4-((1-(4-(2,4-dioxotetrahydropyrimidin-1(2H)-yl)phenyl)piperidin-4-yl)methyl)piperazin-1-yl)pyrimidin-2-yl)amino)pyrimidin-4-yl)-2-methylphenyl)ethyl)-1,2,4-oxadiazole-5-carboxamide] | 3.21 | < 5.00
5 | Cc1cc(-c2cc(Nc3ccc(N4CCN(CCc5ccc(C6CCC(=O)NC6=O)c(F)c5)CC4)cn3)ncn2)ccc1[C@@H](C)NC(=O)c1nc(C(C)(C)C)no1 (stereo partly drawn) [Example 47, 3-(tert-butyl)-N-((1R)-1-(4-(6-((5-(4-(4-(2,6-dioxopiperidin-3-yl)-3-fluorophenethyl)piperazin-1-yl)pyridin-2-yl)amino)pyrimidin-4-yl)-2-methylphenyl)ethyl)-1,2,4-oxadiazole-5-carboxamide] | 0.96 | < 5.00
6 | Cc1cc(-c2cc(Nc3ccc(N4CCC(CN5CCN(c6ccc(N7CCC(=O)NC7=O)cc6)CC5)CC4)cn3)ncn2)ccc1[C@@H](C)NC(=O)c1nc(C(C)(C)C)no1 [Example 21, (R)-3-(tert-butyl)-N-(1-(4-(6-((5-(4-((4-(4-(2,4-dioxotetrahydropyrimidin-1(2H)-yl)phenyl)piperazin-1-yl)methyl)piperidin-1-yl)pyridin-2-yl)amino)pyrimidin-4-yl)-2-methylphenyl)ethyl)-1,2,4-oxadiazole-5-carboxamide] | 2.11 | < 5.00
7 | Cc1cc(-c2cc(Nc3ccc(N4CCN(C5CN(C6CN(c7ccc(C8CCC(=O)NC8=O)cc7)C6)C5)CC4)cn3)ncn2)ccc1[C@@H](C)NC(=O)c1nc(C(C)(C)C)no1 (stereo partly drawn) [Example 42, 3-(tert-butyl)-N-((1R)-1-(4-(6-((5-(4-(1′-(4-(2,6-dioxopiperidin-3-yl)phenyl)-[1,3′-biazetidin]-3-yl)piperazin-1-yl)pyridin-2-yl)amino)pyrimidin-4-yl)-2-methylphenyl)ethyl)-1,2,4-oxadiazole-5-carboxamide] | 1.2 | < 5.00
8 | Cc1cc(CCN2CCN(c3ccc(Nc4cc(-c5ccc([C@@H](C)NC(=O)c6nc(C(C)(C)C)no6)c(C)c5)ncn4)nc3)CC2)ccc1C1CCC(=O)NC1=O (stereo partly drawn) [Example 48, 3-(tert-butyl)-N-((1R)-1-(4-(6-((5-(4-(4-(2,6-dioxopiperidin-3-yl)-3-methylphenethyl)piperazin-1-yl)pyridin-2-yl)amino)pyrimidin-4-yl)-2-methylphenyl)ethyl)-1,2,4-oxadiazole-5-carboxamide] | 1.44 | < 5.00
9 | Cc1cc(-c2cc(Nc3cc(C)c(N4CCN(CC5CCN(c6ccc(N7CCC(=O)NC7=O)cc6)CC5)CC4)cn3)ncn2)ccc1[C@@H](C)NC(=O)c1nc(C(C)(C)C)no1 [Example 62] | 12.3 | < 5.00
10 | Cc1cc(-c2cc(Nc3ccc(N4CCN([C@H]5C[C@@H](c6ccc(N[C@H]7CCC(=O)NC7=O)cc6)C5)CC4)cn3)ncn2)ccc1[C@@H](C)NC(=O)c1nc(C(C)(C)C)no1 [Example 54, 3-(tert-butyl)-N—((R)-1-(4-(6-((5-(4-((1R,3s)-3-(4-(((S)-2,6-dioxopiperidin-3-yl)amino)phenyl)cyclobutyl)piperazin-1-yl)pyridin-2-yl)amino)pyrimidin-4-yl)-2-methylphenyl)ethyl)-1,2,4-oxadiazole-5-carboxamide] | 4.13 | < 5.00
11 | Cc1cc(-c2cc(Nc3ccc(N4CC(CN5CCN(c6ccc(N7CCC(=O)NC7=O)cc6)CC5)C4)cn3)ncn2)ccc1[C@@H](C)NC(=O)c1nc(C(C)(C)C)no1 [Example 20, (R)-3-(tert-butyl)-N-(1-(4-(6-((5-(3-((4-(4-(2,4-dioxotetrahydropyrimidin-1(2H)-yl)phenyl)piperazin-1-yl)methyl)azetidin-1-yl)pyridin-2-yl)amino)pyrimidin-4-yl)-2-methylphenyl)ethyl)-1,2,4-oxadiazole-5-carboxamide] | 1.23 | < 5.00
12 | Cc1cc(-c2cc(Nc3ccc(N4CCN(C5CN(c6ccc(C7CCC(=O)NC7=O)cc6)C5)CC4)cn3)ncn2)ccc1[C@@H](C)NC(=O)c1nc(C(C)(C)C)no1 (stereo partly drawn) [Example 41, 3-(tert-butyl)-N-((1R)-1-(4-(6-((5-(4-(1-(4-(2,6-dioxopiperidin-3-yl)phenyl)azetidin-3-yl)piperazin-1-yl)pyridin-2-yl)amino)pyrimidin-4-yl)-2-methylphenyl)ethyl)-1,2,4-oxadiazole-5-carboxamide] | 2.47 | < 5.00
13 | Cc1cc(-c2cc(Nc3nnc(N4CCN(CC5CCN(c6ccc(N7CCC(=O)NC7=O)cc6)CC5)CC4)s3)ncn2)ccc1[C@@H](C)NC(=O)c1nc(C(C)(C)C)no1 [Example 72, (R)-3-(tert-butyl)-N-(1-(4-(6-((5-(4-((1-(4-(2,4-dioxotetrahydropyrimidin-1(2H)-yl)phenyl)piperidin-4-yl)methyl)piperazin-1-yl)-1,3,4-thiadiazol-2-yl)amino)pyrimidin-4-yl)-2-methylphenyl)ethyl)-1,2,4-oxadiazole-5-carboxamide] | 11.2 | 5.72
14 | Cc1cc(-c2ccnc(Nc3ccc(N4CCN(C5CC6(CCN(c7ccc(N8CCC(=O)NC8=O)cc7)CC6)C5)CC4)cn3)n2)ccc1[C@@H](C)NC(=O)c1nc(C(C)(C)C)no1 [Example 68, (R)-3-(tert-butyl)-N-(1-(4-(2-((5-(4-(7-(4-(2,4-dioxotetrahydropyrimidin-1(2H)-yl)phenyl)-7-azaspiro[3.5]nonan-2-yl)piperazin-1-yl)pyridin-2-yl)amino)pyrimidin-4-yl)-2-methylphenyl)ethyl)-1,2,4-oxadiazole-5-carboxamide] | 17.4 | < 5.00
15 | Cc1cc(-c2cc(Nc3ccc(N4CCN(C[C@@H]5CCN(c6ccc(N7CCC(=O)NC7=O)cc6)C5)CC4)cn3)ncn2)ccc1[C@@H](C)NC(=O)c1nc(C(C)(C)C)no1 [Example 24, 3-(tert-butyl)-N—((R)-1-(4-(6-((5-(4-(((S)-1-(4-(2,4-dioxotetrahydropyrimidin-1(2H)-yl)phenyl)pyrrolidin-3-yl)methyl)piperazin-1-yl)pyridin-2-yl)amino)pyrimidin-4-yl)-2-methylphenyl)ethyl)-1,2,4-oxadiazole-5-carboxamide] | 5.63 | < 5.00
